Laboratory results from ChEMBL document CHEMBL5154823, “Amphiphilic cyclic peptide [W4KR5]-Antibiotics combinations as broad-spectrum antimicrobial agents” (Eur J Med Chem, 2022).
Converted amounts (≈) assume the structure as drawn. The source made the active and inactive calls. No cut-off for these calls is given here. Where a SMILES comes first, the peptide text is derived from it.

Columns and labels:
[1] = system: Cell membrane; assay: Induction of membrane disruption in Staphylococcus aureus ATCC BAA -1556 assessed as increase in PI positive cells at MIC incubated for 2 hrs by Propidium iodide staining based FACS cytometry analysis relative to control
[2] = system: Staphylococcus aureus; assay: Antibacterial activity against Staphylococcus aureus ATCC BAA -1556 assessed as vancomycin MIC incubated for 24 hrs by microbroth dilution assay; assay type: functional
[3] = system: Pseudomonas aeruginosa; assay: Synergistic antibacterial activity against Pseudomonas aeruginosa ATCC 27883 assessed as fractional inhibitory concentration index incubated for 24 hrs in presence of ciprofloxacin by checkerboard assay; assay type: functional
[4] = system: Escherichia coli; assay: Synergistic antibacterial activity against Escherichia coli ATCC 25922 assessed as fractional inhibitory concentration index incubated for 24 hrs in presence of tetracycline by checkerboard assay; assay type: functional
[5] = system: Escherichia coli; assay: Antibacterial activity against carbapenem and NDM-1 positive resistant Escherichia coli ATCC BAA 2452 assessed as reduction in microbial growth incubated for 24 hrs by microbroth dilution method; assay type: functional
[6] = system: Pseudomonas aeruginosa; assay: Synergistic antibacterial activity against Pseudomonas aeruginosa ATCC 27883 assessed as fractional inhibitory concentration index incubated for 24 hrs in presence of polymyxin B by checkerboard assay; assay type: functional
[7] = system: Staphylococcus aureus; assay: Antibacterial activity against Staphylococcus aureus ATCC 29213 assessed as reduction in microbial growth incubated for 24 hrs by microbroth dilution method; assay type: functional
[8] = system: Cell membrane; assay: Induction of membrane disruption in Pseudomonas aeruginosa ATCC BAA 1744 assessed as increase in PI positive cells at MIC incubated for 2 hrs by Propidium iodide staining based FACS cytometry analysis relative to control
[9] = system: Pseudomonas aeruginosa; assay: Bactericidal activity against Pseudomonas aeruginosa ATCC BAA 1744 assessed as decrease of bacterial growth at MIC measured after 12 hrs by Time kill assay; assay type: functional, organism-based
[10] = system: Staphylococcus aureus; assay: Synergistic antibacterial activity against methicillin resistant Staphylococcus aureus ATCC BAA -1556 assessed as fractional inhibitory concentration index incubated for 24 hrs in presence of meropenem by checkerboard assay; assay type: functional
[11] = system: Klebsiella pneumoniae; assay: Antibacterial activity against Klebsiella pneumoniae ATCC BAA 1705 assessed as ciprofloxacin MIC incubated for 24 hrs by microbroth dilution assay; assay type: functional
[12] = system: Pseudomonas aeruginosa; assay: Antibacterial activity against carbapenem resistant Pseudomonas aeruginosa ATCC BAA 1744 assessed as reduction in microbial growth incubated for 24 hrs by microbroth dilution method; assay type: functional
[13] = system: Pseudomonas aeruginosa; assay: Synergistic antibacterial activity against Pseudomonas aeruginosa ATCC 27883 assessed as fractional inhibitory concentration index incubated for 24 hrs in presence of levofloxacin by checkerboard assay; assay type: functional
[14] = system: Cell membrane; assay: Induction of membrane disruption in Pseudomonas aeruginosa ATCC BAA 1744 assessed as increase in PI positive cells at 4 times of MIC incubated for 2 hrs by Propidium iodide staining based FACS cytometry analysis relative to control; assay type: subcellular
[15] = system: Pseudomonas aeruginosa; assay: Antibacterial activity against Pseudomonas aeruginosa ATCC 27883 assessed as tobramycin MIC incubated for 24 hrs by microbroth dilution assay; assay type: functional
[16] = system: Klebsiella pneumoniae; assay: Synergistic antibacterial activity against Klebsiella pneumoniae ATCC BAA 1705 assessed as fractional inhibitory concentration index incubated for 24 hrs in presence of polymyxin B by checkerboard assay; assay type: functional
[17] = system: Pseudomonas aeruginosa; assay: Bactericidal activity against Pseudomonas aeruginosa ATCC BAA 1744 assessed as reduction in colony formation at MIC measured after 18 hrs by Time kill assay; assay type: functional, organism-based
[18] = system: Pseudomonas aeruginosa; assay: Antibacterial activity against Pseudomonas aeruginosa ATCC 27883 assessed as reduction in microbial growth incubated for 24 hrs by microbroth dilution method; assay type: functional
[19] = system: Staphylococcus aureus; assay: Synergistic antibacterial activity against methicillin resistant Staphylococcus aureus ATCC BAA -1556 assessed as fractional inhibitory concentration index incubated for 24 hrs in presence of vancomycin by checkerboard assay; assay type: functional
[20] = system: Escherichia coli; assay: Antibacterial activity against Escherichia coli ATCC 25922 assessed as polymyxin B MIC incubated for 24 hrs by microbroth dilution assay; assay type: functional
[21] = system: Pseudomonas aeruginosa; assay: Antibacterial activity against Pseudomonas aeruginosa ATCC 27883 assessed as levofloxacin MIC incubated for 24 hrs by microbroth dilution assay; assay type: functional
[22] = system: Pseudomonas aeruginosa; assay: Synergistic antibacterial activity against Pseudomonas aeruginosa ATCC 27883 assessed as fractional inhibitory concentration index incubated for 24 hrs in presence of tobramycin by checkerboard assay; assay type: functional
[23] = system: Escherichia coli; assay: Antibacterial activity against Escherichia coli ATCC 25922 assessed as kanamycin MIC incubated for 24 hrs by microbroth dilution assay; assay type: functional
[24] = system: Klebsiella pneumoniae; assay: Antibacterial activity against Klebsiella pneumoniae ATCC BAA 1705 assessed as tobramycin MIC incubated for 24 hrs by microbroth dilution assay; assay type: functional
[25] = system: Staphylococcus aureus; assay: Antibacterial activity against Staphylococcus aureus ATCC BAA -1556 assessed as daptomycin MIC incubated for 24 hrs by microbroth dilution assay; assay type: functional
[26] = system: Klebsiella pneumoniae; assay: Synergistic antibacterial activity against Klebsiella pneumoniae ATCC BAA 1705 assessed as fractional inhibitory concentration index incubated for 24 hrs in presence of ciprofloxacin by checkerboard assay; assay type: functional
[27] = system: Klebsiella pneumoniae; assay: Synergistic antibacterial activity against Klebsiella pneumoniae ATCC BAA 1705 assessed as fractional inhibitory concentration index incubated for 24 hrs in presence of levofloxacin by checkerboard assay; assay type: functional
[28] = system: Escherichia coli; assay: Antibacterial activity against Escherichia coli ATCC 25922 assessed as reduction in microbial growth incubated for 24 hrs by microbroth dilution method; assay type: functional
[29] = system: Klebsiella pneumoniae; assay: Antibacterial activity against Klebsiella pneumoniae ATCC BAA 1705 assessed as kanamycin MIC incubated for 24 hrs by microbroth dilution assay; assay type: functional
[30] = system: HepaRG; assay: Cytotoxicity against human HepaRG cells assessed as assessed as reduction in cell viability at 50 to 150 ug/ml incubated for 24 hrs by microplate reader analysis relative to control; assay type: toxicity, cell-based; conditions: at 50 to 150 µg/mL, dose 50-150 µg/ml
[31] = system: Klebsiella pneumoniae; assay: Antibacterial activity against Klebsiella pneumoniae ATCC BAA 1705 assessed as tetracycline MIC incubated for 24 hrs by microbroth dilution assay; assay type: functional
[32] = system: Escherichia coli; assay: Synergistic antibacterial activity against Escherichia coli ATCC 25922 assessed as fractional inhibitory concentration index incubated for 24 hrs in presence of meropenem by checkerboard assay; assay type: functional
[33] = system: Klebsiella pneumoniae; assay: Synergistic antibacterial activity against Klebsiella pneumoniae ATCC BAA 1705 assessed as fractional inhibitory concentration index incubated for 24 hrs in presence of tobramycin by checkerboard assay; assay type: functional
[34] = system: HEK293; assay: Cytotoxicity against HEK293 cells assessed as effect on cell viability at 10 ug/ml incubated for 24 hrs by microplate reader analysis; assay type: toxicity, cell-based; conditions: human, hek293, 24 h, dose 10 µg/ml
[35] = system: Klebsiella pneumoniae; assay: Antibacterial activity against Klebsiella pneumoniae ATCC BAA 1705 assessed as daptomycin MIC incubated for 24 hrs by microbroth dilution assay; assay type: functional
[36] = system: Staphylococcus aureus; assay: Antibacterial activity against Staphylococcus aureus ATCC BAA -1556 assessed as levofloxacin MIC incubated for 24 hrs by microbroth dilution assay; assay type: functional
[37] = system: Klebsiella pneumoniae; assay: Antibacterial activity against Klebsiella pneumoniae ATCC BAA 1705 assessed as vancomycin MIC incubated for 24 hrs by microbroth dilution assay; assay type: functional
[38] = system: Staphylococcus aureus; assay: Bactericidal activity against methicillin resistant Staphylococcus aureus ATCC BAA 1556 assessed as reduction in colony formation at MIC measured at 8 to 12 hrs by Time kill assay; assay type: functional, organism-based; conditions: time 8-12 hrs
[39] = system: Staphylococcus aureus; assay: Antibacterial activity against Staphylococcus aureus ATCC BAA -1556 assessed clindamycin MIC incubated for 24 hrs by microbroth dilution assay; assay type: functional

In the case of `N=C(N)NCCC[C@@H]1NC(=O)[C@H](CCCNC(=N)N)NC(=O)[C@H](CCCNC(=N)N)NC(=O)[C@H](CCCNC(=N)N)NC(=O)[C@H](Cc2c[nH]c3ccccc23)NC(=O)[C@H](Cc2c[nH]c3ccccc23)NC(=O)[C@H](Cc2c[nH]c3ccccc23)NC(=O)[C@H](Cc2c[nH]c3ccccc23)NC(=O)[C@H](CCCCN)NC(=O)[C@H](CCCNC(=N)N)NC1=O` (cyclo(KWWWWRRRRR)), the Activity [1] is reported as 48.2%, the MIC [2] is reported as 0.25 µg/mL and the “fractional inhibitory concentration index (FICI)” value [3] is reported as 0.5. The “fractional inhibitory concentration index (FICI)” value [4] was 0.5, the MIC [5] was 16 µg/mL and the “fractional inhibitory concentration index (FICI)” value [6] was 0.375. The MIC [7] was 4 µg/mL, the Activity [8] was 39.9% and the Activity [9] was “Active”. For the same molecule, the “fractional inhibitory concentration index (FICI)” value [10] was 1, the MIC [11] was 16 µg/mL and the MIC [12] was 16 µg/mL. The “fractional inhibitory concentration index (FICI)” value [13] was 0.375, the Activity [14] was 66.8% and the MIC [15] was 0.125 µg/mL. For the same molecule, the “fractional inhibitory concentration index (FICI)” value [16] was 0.313, the Activity [17] was “Active” and the MIC [18] was 16 µg/mL. The “fractional inhibitory concentration index (FICI)” value [19] was 0.5, the MIC [20] was 0.125 µg/mL and the MIC [21] was 0.125 µg/mL. For the same molecule, the “fractional inhibitory concentration index (FICI)” value [22] was 0.5, the MIC [23] was 4 µg/mL and the MIC [24] was 2 µg/mL. For the same molecule, the MIC [25] was 0.5 µg/mL, the “fractional inhibitory concentration index (FICI)” value [26] was 0.562 and the “fractional inhibitory concentration index (FICI)” value [27] was 0.375. For the same molecule, the MIC [28] was 16 µg/mL, the MIC [29] was 8 µg/mL and the Activity [30] was 71%. For the same molecule, the MIC [31] was 1 µg/mL, the “fractional inhibitory concentration index (FICI)” value [32] was 1.25 and the “fractional inhibitory concentration index (FICI)” value [33] was 0.375. The Activity [34] was “Non-Toxic”, the MIC [35] was 16 µg/mL and the MIC [36] was 1 µg/mL. For the same molecule, the MIC [37] was 16 µg/mL, the Activity [38] was “Active” and the MIC [39] was 0.031 µg/mL (≈ 0.0187 µM).
